In the CheMixHub viscosity set:
“And” between values parts separate entries of the source, which are not always exact repeats. Equal entries are not always repeated.

CCCCn1cc[n+](C)c1.O=S(=O)([N-]S(=O)(=O)C(F)(F)F)C(F)(F)F
Details | viscosity
293.15 K, 100 kPa | 61.47 mPa·s
293.15 K, 101 kPa | 64.6 mPa·s and 62.91 mPa·s and 65.11 mPa·s
293.15 K, 101.3 kPa | 63.1 mPa·s
293.3 K, 100 kPa | 62.66 mPa·s
293.61 K, 100 kPa | 61.82 mPa·s
293.91 K, 100 kPa | 60.98 mPa·s
294.21 K, 100 kPa | 60.17 mPa·s
294.52 K, 100 kPa | 59.36 mPa·s
294.82 K, 100 kPa | 58.58 mPa·s
295.12 K, 100 kPa | 57.8 mPa·s
295.42 K, 100 kPa | 57.04 mPa·s
295.73 K, 100 kPa | 56.29 mPa·s
296.03 K, 100 kPa | 55.56 mPa·s
296.33 K, 100 kPa | 54.84 mPa·s
296.64 K, 100 kPa | 54.13 mPa·s
296.94 K, 100 kPa | 53.43 mPa·s
297.24 K, 100 kPa | 52.75 mPa·s
297.55 K, 100 kPa | 52.07 mPa·s
297.85 K, 100 kPa | 51.41 mPa·s
298 K, 100 kPa | 49.74 mPa·s
298 K, 101 kPa | 50.4 mPa·s
298.15 K, 101 kPa | 50.29 mPa·s and 51.73 mPa·s and 45.3 mPa·s
298.15 K, 101.3 kPa | 50.53 mPa·s
298.45 K, 100 kPa | 50.12 mPa·s
298.76 K, 100 kPa | 49.49 mPa·s
299.06 K, 100 kPa | 48.87 mPa·s
299.36 K, 100 kPa | 48.26 mPa·s
299.67 K, 100 kPa | 47.66 mPa·s
299.97 K, 100 kPa | 47.08 mPa·s
300.27 K, 100 kPa | 46.5 mPa·s
300.58 K, 100 kPa | 45.93 mPa·s
300.88 K, 100 kPa | 45.37 mPa·s
301.18 K, 100 kPa | 44.82 mPa·s
301.48 K, 100 kPa | 44.27 mPa·s
301.79 K, 100 kPa | 43.74 mPa·s
302.09 K, 100 kPa | 43.22 mPa·s
302.39 K, 100 kPa | 42.7 mPa·s
302.7 K, 100 kPa | 42.19 mPa·s
303 K, 100 kPa | 41.69 mPa·s
303.15 K, 100 kPa | 40.54 mPa·s and 39.95 mPa·s
303.15 K, 101 kPa | 40.77 mPa·s and 41.8 mPa·s
303.61 K, 100 kPa | 40.71 mPa·s
303.91 K, 100 kPa | 40.23 mPa·s
304.21 K, 100 kPa | 39.76 mPa·s
304.52 K, 100 kPa | 39.3 mPa·s
304.82 K, 100 kPa | 38.85 mPa·s
305.12 K, 100 kPa | 38.4 mPa·s
305.42 K, 100 kPa | 37.96 mPa·s
305.73 K, 100 kPa | 37.52 mPa·s
306.03 K, 100 kPa | 37.09 mPa·s
306.33 K, 100 kPa | 36.67 mPa·s
306.64 K, 100 kPa | 36.25 mPa·s
306.94 K, 100 kPa | 35.85 mPa·s
307.24 K, 100 kPa | 35.44 mPa·s
307.55 K, 100 kPa | 35.04 mPa·s
307.85 K, 100 kPa | 34.65 mPa·s
308.15 K, 101 kPa | 34.3 mPa·s
308.15 K, 101.3 kPa | 33.95 mPa·s
308.76 K, 100 kPa | 33.51 mPa·s
309.06 K, 100 kPa | 33.14 mPa·s
309.36 K, 100 kPa | 32.78 mPa·s
309.67 K, 100 kPa | 32.42 mPa·s
309.97 K, 100 kPa | 32.07 mPa·s
310.27 K, 100 kPa | 31.72 mPa·s
310.58 K, 100 kPa | 31.38 mPa·s
310.88 K, 100 kPa | 31.04 mPa·s
311.18 K, 100 kPa | 30.71 mPa·s
311.48 K, 100 kPa | 30.38 mPa·s
311.79 K, 100 kPa | 30.05 mPa·s
312.09 K, 100 kPa | 29.73 mPa·s
312.39 K, 100 kPa | 29.42 mPa·s
312.7 K, 100 kPa | 29.11 mPa·s
313 K, 100 kPa | 28.8 mPa·s
313.15 K, 100 kPa | 28 mPa·s
313.15 K, 101 kPa | 28.06 mPa·s
313.15 K, 101.3 kPa | 28.39 mPa·s
313.2 K, 101.33 kPa | 27.26 mPa·s
313.61 K, 100 kPa | 28.2 mPa·s
313.91 K, 100 kPa | 27.91 mPa·s
314.21 K, 100 kPa | 27.62 mPa·s
314.52 K, 100 kPa | 27.33 mPa·s
314.82 K, 100 kPa | 27.05 mPa·s
315.12 K, 100 kPa | 26.77 mPa·s
315.42 K, 100 kPa | 26.49 mPa·s
315.73 K, 100 kPa | 26.22 mPa·s
316.03 K, 100 kPa | 25.95 mPa·s
316.33 K, 100 kPa | 25.69 mPa·s
316.64 K, 100 kPa | 25.43 mPa·s
316.94 K, 100 kPa | 25.17 mPa·s
317.24 K, 100 kPa | 24.92 mPa·s
317.55 K, 100 kPa | 24.67 mPa·s
318.15 K, 100 kPa | 23.75 mPa·s and 24.18 mPa·s
318.76 K, 100 kPa | 23.7 mPa·s
319.06 K, 100 kPa | 23.47 mPa·s
319.36 K, 100 kPa | 23.23 mPa·s
319.67 K, 100 kPa | 23 mPa·s
319.97 K, 100 kPa | 22.78 mPa·s
320.27 K, 100 kPa | 22.56 mPa·s
320.58 K, 100 kPa | 22.34 mPa·s
320.88 K, 100 kPa | 22.12 mPa·s
321.18 K, 100 kPa | 21.9 mPa·s
321.48 K, 100 kPa | 21.69 mPa·s
321.79 K, 100 kPa | 21.48 mPa·s
322.09 K, 100 kPa | 21.28 mPa·s
322.39 K, 100 kPa | 21.07 mPa·s

COC(=O)CC(=O)OC
Details | viscosity [mPa·s]
303.15 K, 101 kPa | 1.804

COc1ccccc1O
101 kPa
Details | viscosity [mPa·s]
303.15 K | 4.45
308.15 K | 4.138

FC(F)C(F)(F)OCC(F)(F)C(F)(F)C(F)(F)C(F)F
101 kPa
Details | viscosity [mPa·s]
298.15 K | 2.5
308.15 K | 2.12
318.15 K | 1.65
323.15 K | 1.52

Ic1ccccc1
viscosity [mPa·s]
Details | 293.15 K | 298.15 K | 308.15 K | 318.15 K | 323.15 K
101 kPa | – | 1.513 | 1.318 | 1.162 | 1.083
101.33 kPa | 1.736 | – | – | – | –

Nc1cccc(Cl)c1Cl
Details | viscosity [mPa·s]
313.15 K, 101 kPa | 3.74

O=C1CCCCO1
101 kPa
Details | viscosity [mPa·s]
303.15 K | 2.758
308.15 K | 2.496
313.15 K | 2.313
318.15 K | 2.119

OCC(F)(F)F
Details | viscosity
293.15 K, 101 kPa | 2.11 mPa·s and 2.108 mPa·s
298 K, 101.3 kPa | 1.737 mPa·s
298.15 K, 100 kPa | 1.744 mPa·s
298.15 K, 101 kPa | 1.84 mPa·s and 1.722 mPa·s
298.15 K, 101.33 kPa | 1.73 mPa·s
303 K, 101.3 kPa | 1.357 mPa·s
303.15 K, 101 kPa | 1.62 mPa·s
303.15 K, 101.33 kPa | 1.53 mPa·s
308 K, 101.3 kPa | 1.201 mPa·s
308.15 K, 101 kPa | 1.43 mPa·s
308.15 K, 101.33 kPa | 1.35 mPa·s
313 K, 101.3 kPa | 1.054 mPa·s
313.15 K, 100 kPa | 1.23 mPa·s
313.15 K, 101 kPa | 1.27 mPa·s and 1.203 mPa·s
318.15 K, 100 kPa | 1.1 mPa·s
318.15 K, 101 kPa | 1.13 mPa·s
318.15 K, 101.33 kPa | 1.09 mPa·s
323.15 K, 100 kPa | 0.99 mPa·s and 0.948 mPa·s
323.15 K, 101 kPa | 1.02 mPa·s and 0.963 mPa·s
